Values joined by “and” are separate entries in the source; they are usually repeats but may differ in a detail not shown here. Equal entries are not always repeated.
Tests used:
[1] = system: rhesus monkeys with spontaneous chronic kidney disease; test: Effect on glomerular filtration rate eGFRcreat-cys, 8-week administration; type: in vivo, Macaca mulatta (Rhesus Macaque); conditions: for eGFRcreat-cy, Change value: 5 mg/kg oral once a day; for eGFRcreat-cys: 5 mg/kg qd (n = 6)
Description: CKD-EPI rating […]-G3b, glomerular filtration rate eGFR: 30 59 ml/min/1.73 m^2; or moderate to severe increase in proteinuria (A2-A3): urine albumin/creatinine ratio (UACR)>15 mg/g-350 mg/g (4-6 hour urine collection), vs. age-matched control group 3±2 mg/g. In the trial, animals were brought in three stages. […] Glomerular filtration rate […]: creatinine (Cr-P), urea nitrogen (BUN) and cystatin (CysC) were detected, and the eGFR value was obtained by calculation. It was performed once before the administration and once every two weeks after the administration. […] ELISA kit was used for NT-proBNP test. [table] Selected […] in each group: 30 59 ml/min/1.73 m^2. The changes in the glomerular filtration rate of W8 and baseline were analyzed.

[2] = system: rhesus monkeys with spontaneous chronic kidney disease; test: Effect on plasma creatinine Cr-P, 8-week administration; type: in vivo, Macaca mulatta (Rhesus Macaque)
Description: In the trial, animals were brought in three stages. […] Glomerular filtration rate […]: creatinine (Cr-P), urea nitrogen (BUN) and cystatin (CysC) were detected, and the eGFR value was obtained by calculation. It was performed once before the administration and once every two weeks after the administration. […] ELISA kit was used for NT-proBNP test. [table]

COC(=O)NCCCn1nc([C@@H](C)N(C(=O)[C@H]2CNCCO2)C2CC2)c2ccc(C)nc21.O=C(O)C[C@H](O)C(=O)O [malate of compound of Formula I]
eGFRcreat-cy, Change value ([1]; 2 weeks vs baseline, per animal + Mean ± SD, mean): 5 ± 9 ml/min/1.73 m^2
eGFRcreat-cy, Change value ([1]; 4 weeks vs baseline, per animal + Mean ± SD): −3 ml/min/1.73 m^2 and 4 ml/min/1.73 m^2 and 6 ml/min/1.73 m^2 and 2 ml/min/1.73 m^2 and 12 ml/min/1.73 m^2 and 11 ml/min/1.73 m^2
eGFRcreat-cy, Change value ([1]; 4 weeks vs baseline, per animal + Mean ± SD, mean): 5 ± 6 ml/min/1.73 m^2
eGFRcreat-cy, Change value ([1]; 6 weeks vs baseline, per animal + Mean ± SD): −1 ml/min/1.73 m^2 (2×) and 6 ml/min/1.73 m^2 and −2 ml/min/1.73 m^2 and 11 ml/min/1.73 m^2 (2×)
eGFRcreat-cy, Change value ([1]; 6 weeks vs baseline, per animal + Mean ± SD, mean): 4 ± 6 ml/min/1.73 m^2
eGFRcreat-cy, Change value ([1]; 8 weeks vs baseline, per animal + Mean ± SD (p<0.05 vs placebo)): 6±6 ml/min/1.73 m^2 and 3 ml/min/1.73 m^2 and 6 ml/min/1.73 m^2 and 4 ml/min/1.73 m^2 and 2 ml/min/1.73 m^2 and 8 ml/min/1.73 m^2 and 17 ml/min/1.73 m^2
eGFRcreat-cy, Change value ([1]; Baseline, per animal + Mean ± SD): 0 ml/min/1.73 m^2
eGFRcreat-cy, Change value ([1]; Baseline, per animal + Mean ± SD, mean): 0 ± 0 ml/min/1.73 m^2
eGFRcreat-cys ([1]; 2 weeks): 51 ml/min/1.73 m^2 and 57 ml/min/1.73 m^2 and 62 ml/min/1.73 m^2 and 37 ml/min/1.73 m^2 and 54 ml/min/1.73 m^2 and 61 ml/min/1.73 m^2
eGFRcreat-cys ([1]; 2 weeks, group mean): 54 ± 9 ml/min/1.73 m^2
eGFRcreat-cys ([1]; 6 weeks): 53 ml/min/1.73 m^2 and 54 ml/min/1.73 m^2 and 49 ml/min/1.73 m^2 and 40 ml/min/1.73 m^2 and 64 ml/min/1.73 m^2
eGFRcreat-cys ([1]; 6 weeks, group mean): 53 ± 8 ml/min/1.73 m^2
eGFRcreat-cys ([1]; 8 weeks): 57 ml/min/1.73 m^2 and 53 ml/min/1.73 m^2 and 55 ml/min/1.73 m^2 and 43 ml/min/1.73 m^2 and 61 ml/min/1.73 m^2 and 60 ml/min/1.73 m^2
eGFRcreat-cys ([1]; 8 weeks, group mean): 55 ± 7 ml/min/1.73 m^2
eGFRcreat-cys ([1]; Baseline, single animals and Mean ± SD): 55 ml/min/1.73 m^2 and 48 ml/min/1.73 m^2 and 51 ml/min/1.73 m^2 and 41 ml/min/1.73 m^2 and 53 ml/min/1.73 m^2 and 43 ml/min/1.73 m^2
eGFRcreat-cys ([1]; Baseline, single animals and Mean ± SD, group mean): 49 ± 5 ml/min/1.73 m^2
glomerular filtration rate eGFRcreat-cys improvement ([1]; 2-5 mg/kg qd for 8 weeks): can be significantly improved
Cr-P ([2]; 1 mg/kg (n = 5), 2 weeks): 1.21 mg/dL and 1.07 mg/dL and 1.12 mg/dL and 1.13 mg/dL and 1.24 mg/dL
Cr-P ([2]; 1 mg/kg (n = 5), 2 weeks, mean): 1.15 ± 0.07 mg/dL
Cr-P ([2]; 1 mg/kg (n = 5), 4 weeks): 1.11 mg/dL and 1.01 mg/dL and 1.12 mg/dL and 1.06 mg/dL and 1.26 mg/dL
Cr-P ([2]; 1 mg/kg (n = 5), 4 weeks, mean): 1.11 ± 0.09 mg/dL
Cr-P ([2]; 1 mg/kg (n = 5), 6 weeks): 1.16 mg/dL and 1.07 mg/dL and 1.22 mg/dL
Cr-P ([2]; 1 mg/kg (n = 5), 6 weeks, mean): 1.12 ± 0.07 mg/dL
Cr-P ([2]; 1 mg/kg (n = 5), 8 weeks): 1.14 mg/dL and 1.01 mg/dL and 1.17 mg/dL and 1.18 mg/dL and 1.22 mg/dL
Cr-P ([2]; 1 mg/kg (n = 5), 8 weeks, mean): 1.14 ± 0.08 mg/dL
Cr-P ([2]; 1 mg/kg (n = 5), Baseline, single animals and Mean ± SD): 1.25 mg/dL and 1.03 mg/dL and 1.09 mg/dL and 1.05 mg/dL and 1.21 mg/dL
Cr-P ([2]; 1 mg/kg (n = 5), Baseline, single animals and Mean ± SD, mean): 1.13 ± 0.10 mg/dL
Cr-P ([2]; 2 mg/kg (n = 5), 2 weeks): 1.1 mg/dL and 1.19 mg/dL and 1.52 mg/dL and 1.54 mg/dL and 1.11 mg/dL
Cr-P ([2]; 2 mg/kg (n = 5), 2 weeks, mean): 1.29 ± 0.22 mg/dL
Cr-P ([2]; 2 mg/kg (n = 5), 4 weeks): 1.15 mg/dL and 1.44 mg/dL and 1.47 mg/dL and 1.26 mg/dL and 1.09 mg/dL
Cr-P ([2]; 2 mg/kg (n = 5), 4 weeks, mean): 1.28 ± 0.17 mg/dL
Cr-P ([2]; 2 mg/kg (n = 5), 6 weeks): 1.17 mg/dL and 1.27 mg/dL and 1.43 mg/dL and 1.34 mg/dL and 1.04 mg/dL
Cr-P ([2]; 2 mg/kg (n = 5), 6 weeks, mean): 1.25 ± 0.15 mg/dL
Cr-P ([2]; 2 mg/kg (n = 5), 8 weeks): 1.17 mg/dL and 1.29 mg/dL and 1.4 mg/dL and 1.3 mg/dL and 1.11 mg/dL
Cr-P ([2]; 2 mg/kg (n = 5), 8 weeks, mean): 1.25 ± 0.11 mg/dL
Cr-P ([2]; 2 mg/kg (n = 5), Baseline, single animals and Mean ± SD): 1.15 mg/dL and 1.14 mg/dL and 1.36 mg/dL and 1.42 mg/dL and 1.06 mg/dL
Cr-P ([2]; 2 mg/kg (n = 5), Baseline, single animals and Mean ± SD, mean): 1.23 ± 0.16 mg/dL
Cr-P ([2]; 5 mg/kg (n = 6), 2 weeks): 0.92 mg/dL and 1.14 mg/dL and 0.88 mg/dL and 1.12 mg/dL and 1.40 mg/dL and 0.96 mg/dL
